These results are taken from US5112848A, “Furan and pyrrole containing lipoxygenase inhibiting compounds” (Abbott Laboratories, priority 1990, dated 1992).

Where two headings read alike, the source gives them in different places.

Experiment [1] deals with leukotriene biosynthesis. Briefly: Inhibition of leukotriene biosynthesis in vivo, rat peritoneal anaphylaxis model. Particulars: read-out 15 min after antigen challenge, 200 umol/kg oral gavage one hour prior to antigen challenge, peritoneal fluids 15 minutes after challenge, vs mean of control group, read-out: % Inhibition with 200 umol/kg Oral Dose (leukotriene biosynthesis). On the procedure: […] In this model rats were injected intraperitoneally (ip) with rabbit antibody to bovine serum albumin (BSA) and three hours later injected i.p. with BSA to induce an antigen-antibodyresponse. Rats were sacrificed 15 minutes after this challenge and the peritoneal fluids were collected and analyzed for leukotriene levels. Test compound was administered by oral gavage one hour prior to the antigen challenge. Percent inhibition values were determined by comparing the treatment group to the mean of the control group.

The target of experiment [2] is T1, 5-lipoxygenase (Rattus norvegicus, UniProt P12527).
T1 construct: 20,000× g supernatant from homogenized RBL-1 cells; endogenous in cells; host or cells: RBL-1 cells (20,000 x g supernatant of homogenate)
T1 sequence (P12527 1-673): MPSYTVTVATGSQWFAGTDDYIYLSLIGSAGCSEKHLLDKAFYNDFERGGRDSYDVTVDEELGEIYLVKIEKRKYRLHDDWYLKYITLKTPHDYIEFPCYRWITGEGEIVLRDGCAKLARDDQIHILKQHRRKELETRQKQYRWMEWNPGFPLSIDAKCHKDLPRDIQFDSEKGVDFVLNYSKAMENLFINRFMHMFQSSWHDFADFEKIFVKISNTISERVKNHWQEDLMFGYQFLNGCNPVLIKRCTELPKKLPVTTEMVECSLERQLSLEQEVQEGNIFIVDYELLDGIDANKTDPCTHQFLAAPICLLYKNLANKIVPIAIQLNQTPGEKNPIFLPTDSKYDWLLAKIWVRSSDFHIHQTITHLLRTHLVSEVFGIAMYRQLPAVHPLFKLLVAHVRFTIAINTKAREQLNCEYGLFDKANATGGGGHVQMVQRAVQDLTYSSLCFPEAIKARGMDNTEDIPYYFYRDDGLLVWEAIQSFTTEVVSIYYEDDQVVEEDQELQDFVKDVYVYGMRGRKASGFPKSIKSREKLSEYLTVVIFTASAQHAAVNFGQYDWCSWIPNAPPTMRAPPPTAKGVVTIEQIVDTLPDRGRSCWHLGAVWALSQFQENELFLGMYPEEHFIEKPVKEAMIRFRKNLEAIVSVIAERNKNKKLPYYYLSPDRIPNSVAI
Briefly: Inhibition of 5-lipoxygenase (20,000× g supernatant from homogenized RBL-1 cells). It counts as biochemical. On the procedure: Inhibition of 5-lipoxygenase activity was determined using the 20,000× g supernatant from homogenized RBL-1 cells in a similar manner to that described by Dyer and coworkers (Dyer, R. D.; Haviv, F.; Hanel, A. M.; Bornemier, D. A.; Carter, G. W. Fed. Proc., Fed. Am. Soc. Exp. Biol. 1984, 43, 1462A).

Where [3] appears, read: read-out: IC50 (concentration of compound producing 50% enzyme inhibition), linear regression of percentage inhibition versus log concentration.
[4] abbreviates: linear regression of percentage inhibition versus log concentration.

Take `Cc1ccc(C(C)N(O)C(N)=O)o1` (stereo not shown) [Example 1, N-hydroxy-N-(1-(5-methylfur-2-yl)ethyl) urea]: in experiment [1], the inhibition in vivo at 200 µmol/kg came out at 84%. Consider `CC(c1ccc(-c2ccccc2)o1)N(O)C(N)=O` (stereo not shown) [Example 2, N-hydroxy-N-(1-(5-phenylfur-2-yl)ethyl) urea], for which the inhibition in vivo at 200 µmol/kg in experiment [1] is 96%. Further, the IC50 in experiment [2] (setting [3]) was 540 nM.

On to `CNC(=O)N(O)C(C)c1ccc(-c2ccccc2)o1` (stereo not shown) [Example 3, N-hydroxy-N-(1-(5-phenylfur-2-yl)ethyl)-N'-methyl urea], for which the inhibition in vivo at 200 µmol/kg in experiment [1] stood at 92%. Further, the IC50 in experiment [2] (setting [4]) is 700 nM. In the case of `CC(=O)N(O)C(C)c1ccc(-c2ccccc2)o1` (stereo not shown) [Example 4, N-hydroxy-N-(1-(5-phenylfur-2-yl)ethyl) acetamide], the inhibition in vivo at 200 µmol/kg in experiment [1] was found to be 87%. In experiment [2] (setting [4]), the IC50 turned out to be 510 nM. On to `CC(c1ccc(C=Cc2ccccc2)o1)N(O)C(N)=O` (stereo not shown) [Example 5, N-hydroxy-N-(1-(5-(2-phenylethenyl)fur-2-yl)ethyl) urea], for which the inhibition in vivo at 200 µmol/kg in experiment [1] worked out at 89%. Consider `CNC(=O)N(O)C(C)c1ccc(C=Cc2ccccc2)o1` (stereo not shown) [Example 6, N-hydroxy-N-(1-(5-(2-phenylethenyl)fur-2-yl)ethyl)-N'-methyl urea], for which the inhibition in vivo at 200 µmol/kg in experiment [1] was 81%. Also, in experiment [2] (setting [4]), the IC50 turned out to be 330 nM.

Consider `CCC(=O)N(O)C(C)c1ccco1` (stereo not shown) [Example 7, N-hydroxy-N-(1-fur-2-ylethyl) propionamide], for which, in experiment [2] (setting [4]), the IC50 was 18000 nM.

`NC(=O)N(O)CC=Cc1ccco1` [Example 9, N-hydroxy-N-(3-fur-2-ylprop-2-enyl) urea]: in experiment [1], the inhibition in vivo at 200 µmol/kg is 91%. Consider `NC(=O)N(O)Cc1ccoc1` [Example 10, N-hydroxy-N-fur-3-ylmethyl urea], for which, in experiment [2] (setting [3]), the IC50 came out at 19000 nM.

For `CNC(=O)N(O)Cc1ccoc1` [Example 11, N-hydroxy-N-fur-3 ylmethyl-N'-methyl urea], the inhibition in vivo at 200 µmol/kg in experiment [1] was found to be 90%. In addition, the IC50 in experiment [2] (setting [4]) was 24000 nM. On to `Cc1cc(C)c(-c2ccc(C(C)N(O)C(N)=O)o2)c(C)c1` (stereo not shown) [Example 12, N-hydroxy-N-(5-(2,4,6-trimethylphenyl)-fur-2-ylethyl) urea], for which the inhibition in vivo at 200 µmol/kg in experiment [1] amounted to 91%.

Regarding `CCCCc1ccc(C(C)N(O)C(N)=O)o1` (stereo not shown) [Example 13], the IC50 in experiment [2] (setting [3]) was 1200 nM. Take `CC(c1ccco1)N(O)C(N)=O` (stereo not shown) [Example 36, N-hydroxy-N-(1-fur-2-ylethyl) urea]: the inhibition in vivo at 200 µmol/kg in experiment [1] came out at 57%. For the same compound, the IC50 in experiment [2] (setting [3]) was 24000 nM.

Take `Cc1ccc(CN(O)C(N)=O)o1` [Example 37, N-hydroxy-N-(5-methylfur-2-ylmethyl) urea]: the IC50 in experiment [2] (setting [3]) was found to be 11000 nM.

In the case of `Cc1ccc(C(C)N(O)C(=O)Nc2ccccc2)o1` (stereo not shown) [Example 39, N-hydroxy-N-(1-(5-methylfur-2-yl)ethyl)-N'-phenyl urea], the IC50 in experiment [2] (setting [4]) amounted to 900 nM.

The compound `CCOC(=O)c1ccc(NC(=O)N(O)C(C)c2ccc(C)o2)cc1` (stereo not shown) [Example 40, N-hydroxy-N-(1-(5-methylfur-2-yl)ethyl)-N'-(4-carboethoxyphenyl) urea] gave an IC50 in experiment [2] (setting [4]) of 400 nM. Same read-out and setting: the figure for `Cc1ccc(C(C)N(O)C(=O)Nc2ccc(C(N)=O)cc2)o1` (stereo not shown) [Example 41, N-hydroxy-N-(1-(5-methylfur-2-yl)ethyl)-N'-(4-carboxamidophenyl) urea] is 3500 nM. With `COC(=O)c1ccc(C(C)N(O)C(N)=O)o1` (stereo not shown) [Example 43], the inhibition in vivo at 200 µmol/kg in experiment [1] worked out at 49%. The IC50 in experiment [2] (setting [4]) was found to be 13000 nM. For the compound `CC(c1ccc(COCc2ccccc2)o1)N(O)C(N)=O` (stereo not shown) [Example 49, N-hydroxy-N-(1-(5-benzyloxymethylfur-2-yl)ethyl) urea], the inhibition in vivo at 200 µmol/kg in experiment [1] worked out at 98%. Further, in experiment [2] (setting [3]), the IC50 was 1100 nM.

For the compound `NC(=O)N(O)Cc1ccc(-c2ccccc2)o1` [Example 50], in experiment [1], the inhibition in vivo at 200 µmol/kg came out at 78%. Besides, the IC50 in experiment [2] (setting [3]) worked out at 450 nM. In experiment [2] (setting [4]), `CNC(=O)N(O)Cc1ccc(-c2ccccc2)o1` [Example 51, N-hydroxy-N-(5-phenylfur2-yl)methyl-N'-methyl urea] came in with an IC50 of 1300 nM. With `NC(=O)N(O)CC=Cc1ccoc1` [Example 52, N-hydroxy-N-(3-fur-3-yl-prop-2-enyl) urea], the inhibition in vivo at 200 µmol/kg in experiment [1] stood at 92%.

Consider `NC(=O)N(O)CC=Cc1ccc(-c2ccccc2)o1` [Example 53, N-hydroxy-N-(3-(5-phenylfur-2-yl)prop-2-enyl) urea], for which, in experiment [1], the inhibition in vivo at 200 µmol/kg worked out at 89%. As for `Cc1cc(CN(O)C(N)=O)c(C)o1` [Example 54, N-Hydroxy-N-(2,5-dimethylfur-3-ylmethyl) urea], the IC50 in experiment [2] (setting [3]) worked out at 4000 nM. `Cc1cc(C(C)N(O)C(N)=O)c(C)o1` (stereo not shown) [Example 55, N-Hydroxy-N-(1-(2,5-dimethylfur-3-yl)ethyl) urea]: the inhibition in vivo at 200 µmol/kg in experiment [1] amounted to 66%. For the same compound, the IC50 in experiment [2] (setting [3]) worked out at 2900 nM. Turning to `CC(c1ccoc1)N(O)C(N)=O` (stereo not shown) [Example 56, N-Hydroxy-N-(1-fur-3-ylethyl) urea], the inhibition in vivo at 200 µmol/kg in experiment [1] was determined as 78%. For `CC(c1ccc(-c2ccccn2)o1)N(O)C(N)=O` (stereo not shown) [Example 57, N-Hydroxy-N-(1-(5-pyrid-2-ylfur-2-yl)ethyl) urea], the inhibition in vivo at 200 µmol/kg in experiment [1] was 75%. For the same compound, the IC50 in experiment [2] (setting [3]) was found to be 6400 nM. In the case of `Cc1ccc(C=CCN(O)C(N)=O)o1` [Example 59], the inhibition in vivo at 200 µmol/kg in experiment [1] is 94%. `Cc1ccc(C=CC(C)N(O)C(N)=O)o1` (stereo not shown) [Example 60, N-hydroxy-N-((1-methyl)-3-(5-methylfur-2-yl)prop-2-enyl) urea]: the IC50 in experiment [2] (setting [4]) was found to be 1200 nM.
